The source of these data is patent US12544335B2, “Treatment approach by targeted delivery of bioactive molecules” (priority 2018, dated 2026).

Data set [1] can be described thus: Tetracycline uptake in CaS/HA pellet in muscle pouch, fluorescence microscopy. To be noted: 1 day later. As for the experimental part: Methods: A pellet of CaS/HA biomaterial (5 mm diameter×2 mm height) was placed in an abdominal muscle pouch of rats. […] 1-day later, the animals were sacrificed and the pellet of CaS/HA as well as surrounding muscle was harvested, fixed in formalin (4%) and embedded in paraffin. The tissue was then cut using a microtome to a thickness of 5 μm. The sections were de-paraffinized using xylene, rehydrated using decreasing ethanol gradient and cleared in water. Finally, the sections were analyzed on a fluorescence microscope (Zeiss, Japan Filter: FITC, Gain: 0, Exposure: 150 ms).

The next data set concerns S. aureus ATCC 25923. Nature of the data set: In-vivo biomodulation of HA pellets by systemic TET, disk diffusion assay. The format is cell-based. To be noted: TET 25 mg/rat i.p. for 3 days, 24 h after 3rd injection. As for the experimental part: METHODS: (1) In-vitro binding experiment: Nano-HA powder of <200 nm particle size, with a majority of the particles being in size of about 50 nm (100 mg; Fluidnova) was measured in 2 mL microcentrifuge tubes in triplicates and 1 mL of TET solution (4 μg/mL) was added. After vortex mixing, tubes were kept on a rotator at 180 RPM for 1, 6, and 12 h. At desired time points, the tubes were removed and centrifuged at 14000 RPM for 2 min. The supernatant was discarded and sediments were then “washed” 4 times by adding 1 mL of saline (NaCl 0.9%) followed by vortex mixing and centrifuging at 14000 RPM for 2 min. After 4 washing-cycles, supernatants were discarded and 60 μL of hyaluronic acid (HAD, 1 mg/mL) was added to the sediments and mixed. Pastes were then transferred to an elastic mold (Ø=4.7 mm) and placed at −20° C. for an hour to freeze nano-HA paste into pellet. Frozen pellets were removed from the molds and brought to room temperature. […] After overnight incubation at 37° C., the diameter of the zone of inhibition (ZOI) around the pellets were measured.
(2) In-vivo biomodulation: Pellets of nano-/micro-HA were prepared by mixing 100 mg of nano-/micro-HA (Fluidnova, wherein the micro-HA particles are about 10 μm, and wherein the nano-HA particles are less than 200 nm and a majority of the nano-HA particles about 50 nm) with 60 and 80 μL of HAD, (1 mg/mL) respectively. […]
(In general: In agar diffusion tests the substance spreads into inoculated agar from a disc or well.)

The nature of data set [2]: Long term elution of gentamycin from HA/Sulphate carrier. It counts as physicochemical.
For the next data set, the system named is S. aureus. Nature of the data set: Example 18: zone of inhibition of materials harvested from rat muscle pouch. The format is cell-based. The settings on record: Cerament G / Cerament V, 2 weeks implanted, no systemic antibiotic. The text has this:
Small pellets of pristine hydroxyapatite (HA) of nano or micro size (wherein the micro-HA particles are about 10 μm, wherein the nano-HA particles are less than 200 nm and a majority of the nano-HA particles about 50 nm) were implanted in the abdominal muscle pouch of rats (Group 1). In another set of animals, pellets of calcium sulphate and micro-sized HA (Cerament) containing gentamycin (Cerament G) or vancomycin (Cerament V) were implanted in the muscle pouch of rats (Group 2).
[…] Tibial cortical bone samples were also collected as positive control and muscle tissue from the abdomen was collected as a negative control.
In group 2, no antibiotics were administered systemically, and the implants only contained locally added antibiotics at the time of administration.
All samples were snap frozen in liquid nitrogen and pulverized using a mortar and pestle. Pulverized specimens were then placed in a silicon mold, casted as a pellet and placed in a bacterial culture plate containing S. aureus, a common pathogen found in bone and joint infections.

Data set [3] can be described thus: In-vitro doxorubicin binding to apatite particles. To be noted: 10 μg Doxorubicin in 1 mL PBS, 48 h. As for the experimental part: Methods: 5 mg, 10 mg and 20 mg apatite particles were suspended in 1 mL PBS containing 10 μg Doxorubicin and homogenously distributed in the suspension using sonication for 5 min. The specimens were rotated gently on a rotational shaker for 48 h (speed: 50 rpm). After 48 h, the specimens were centrifuged to obtain a pellet of the apatite particles and the supernatant was collected. The apatite particles were then resuspended in 1 mL of PBS, thoroughly pipetted to wash the unbound drug. At this point, the particles were centrifuged again and the supernatant was collected. The washing was repeated once again using the same protocol and the supernatant from the original time and 2 supernatants from the washing steps were measured for fluorescence on a spectro fluorimeter (excitation: 485 nm and emission: 580 nm). Bound doxorubicin to the apatite particles was also detected using fluorescence microscopy. Unbound free drug was used as a control.

A short description of data set [4]: In-vitro doxorubicin release from CaS/HA pellets. It counts as physicochemical. As for the experimental part: Methods: Pellets of CaS/HA biomaterial were made by mixing 10 μg Doxorubicin/pellet. Each pellet containing 10 μg Doxorubicin was immersed in 1 mL PBS at two different pH (5 and 7.4). At each time point, old PBS was frozen until further analysis and the tube refilled with 1 mL fresh PBS. The experiment was conducted for a period of 4-weeks. Supernatants were analyzed on a spectro fluorimeter (excitation: 485 nm and emission: 580 nm).

Data set [5] can be described thus: In-vivo doxorubicin binding to nano apatite particles in muscle pouch, fluorescence microscopy. Also on record: species or system rats. The method, then: Methods: 25 mg of nano sized apatite particles (size <200 nm) were implanted in the abdominal muscle pouch of rats. Animals were injected with 5 mg/kg doxorubicin re-suspended in PBS 2-weeks post implantation and the animals were sacrificed 1 day later. The specimens were harvested from the implanted muscle pouch and as a positive control, the site of doxorubicin systemic injection (skin under the neck) was also taken for histology. The samples were embedded in paraffin and cut to a thickness of 5 μm. The samples were then analyzed on a fluorescent microscope (excitation: 485 nm and emission: 580 nm).

A short description of data set [6]: Accretion and long-term availability of 14C-ZA in CaS/HA in femoral neck canal. The format is in vivo, osteoporotic rats. To be noted: systemic dose 0.1 mg/kg 2 weeks post implantation. The method, then: Methods: The CaS/HA biomaterial was implanted in the femoral neck canal of 6 osteoporotic rats. The animals (n=3) then received a systemic (sub-cutaneous) dose of ^14C-ZA (0.1 mg/kg, specific radioactivity: 7.1 MBq/mL) 2-weeks post implantation. The animals were sacrificed 6 months post implantation (5 months and 2 weeks post injection). Results: The uptake of ^14C-ZA in the animals that were given a systemic dose of ^14C-ZA was verified using scintillation counting. Results are illustrated in FIG. 6.

Data set [7] can be described thus: Uptake of systemic 14C-ZA in CaS/HA pellet in abdominal muscle pouch. The format is in vivo, rats. The method, then: 2-weeks after surgery, the animals were injected with ^14C labelled ZA (0.1 mg/kg, specific radioactivity: 7.1 MBq/mL) via the systemic route (sub-cutaneous) and the radioactivity was measured in 1) the CaS/HA pellet placed in the muscle and 2) surrounding muscle 24-h later.

Data set [8] in a line: Apatite particle size dependence of 14C-ZA uptake in muscle pouch. The format is in vivo, rats. The settings on record: 25 mg particles, 0.1 mg/kg ZA 2 weeks post implantation, 1 day post injection. As for the experimental part:
Method: We used 25 mg of micro sized pure apatite particles (size: 10 μm) and 25 mg of nano sized apatite particles (size: <200 nm) and placed them bilaterally in the abdominal muscle pouch of rats. Each animal then received a systemic dose of ^14C-ZA 2-weeks post implantation (Injection dose: 0.1 mg/kg ZA, drug/rat: 40 μg, specific radioactivity: 7.1 MBq/mL, ZA concentration: 1 mg/mL). The rats were sacrificed 1-day post injection and the radioactivity in micro and nano apatite particles was measured using scintillation counting.

Data set [9] in a line: Re-loading of apatite particles by repeated 14C-ZA injection. It counts as in vivo, rats. To be noted: injections day 14 and day 27, average. As for the experimental part:
Methods: We used 25 mg of micro sized pure apatite particles (size: 10 μm) and 25 mg of nano sized apatite particles (size: <200 nm) and placed them bilaterally in the abdominal muscle pouch of rats. Two different time points were used. At time point 1 (day 14), all animals received the same amount of the radioactive ^14C-ZA. […] All animals were sacrificed a day later and the uptake of the drug measured in the apatite particles of two different sizes using scintillation counting.

Data set [10] can be described thus: In-vitro release of isoniazid from CaS/HA pellets in PBS. The format is physicochemical. To be noted: day 1, PBS. The method, then:
Method: Isoniazid was mixed to CaS/HA biomaterial and equal volume pellets were created. Each pellet was then placed in a 1.5 mL tube and filled with 1 mL phosphate buffered saline (PBS). At each time point, the old PBS was removed and frozen until the day of analysis. The tube was refilled with fresh PBS (1 mL). All samples were analyzed spectrophotometrically and the concentration of the released antibiotic was calculated from a standard curve of isoniazid made in PBS.

`CN(C)[C@@H]1C(O)=C(C(N)=O)C(=O)[C@@]2(O)C(O)=C3C(=O)c4c(O)cccc4[C@@](C)(O)[C@H]3C[C@@H]12` [tetracycline]: in [1] (25 mg/kg sub-cutaneous 2 weeks after surgery), the “uptake of tetracycline in CaS/HA biomaterial” value is “clear uptake”. Also, the “uptake of tetracycline in surrounding muscle” value in [1] (25 mg/kg sub-cutaneous) was “no uptake”. Moreover, in the data set on S. aureus ATCC 25923, the “ZOI of kidney samples” value is listed as 14-17 mm and the “ZOI of liver samples” value is 10-12 mm.

As for Gentamycin, in [2] (at one month), the “release of gentamycin from biphasic HA/Sulphate carrier” value is recorded as “complete release”. Besides, the “time by which the Apatite/Sulphate material releases gentamycin” value in data set [2] (trend line, elution over 2 months) is no more than 4 weeks. Further, the “inhibition of bacterial growth by CaS/HA with locally added antibiotic” value in the data set with S. aureus is on record as “could not inhibit bacterial growth”.

For the compound `COc1cccc2c1C(=O)c1c(O)c3c(c(O)c1C2=O)C[C@@](O)(C(=O)CO)C[C@@H]3O[C@H]1C[C@H](N)[C@H](O)[C@H](C)O1` [doxorubicin], the figures for the “drug bound to apatite particles” value in data set [3] (5 mg apatite particles), in data set [3] (10 mg apatite particles) and in data set [3] (20 mg apatite particles) were “approximately 10%”, 30% and “approximately 75%”, respectively. Also, the “release at later time points” value in data set [4] (after day 3, up to 4 weeks) is recorded as “No further release”. For the same compound, the “burst release of the drug from CaS/HA” value in [4] (day 1 and 3, PBS pH 5 and 7.4, 10 μg/pellet) was 20-35%. Also, the “release in low pH group compared with pH 7.4” value in data set [4] (pH 5 vs 7.4) was “slightly higher release”. The “fluorescence at the site of injection” value in [5] (5 mg/kg, 1 day after injection, positive control site) is given as “Strong fluorescent staining”. Besides, the “fluorescence in muscle 1 cm distal from the implant” value in [5] (5 mg/kg, 1 day later) is reported as “did not show any fluorescence”. In [5] (25 mg nano apatite, 5 mg/kg 2 weeks post implantation, 1 day later), the “fluorescence in apatite particles and area immediately around” value is recorded as “relatively weak but positive signal”.

Consider `O=P(O)(O)C(O)(Cn1ccnc1)P(=O)(O)O` [ZA, Zoledronic Acid], for which the “time the drug stays in the apatite material” value in data set [6] (listed as zoledronic acid) was 6 months.

`O=P(O)(O)C(O)(Cn1ccnc1)P(=O)(O)O` [^14C-ZA]: the “uptake of 14C-ZA in CaS/HA biomaterial” value in [7] (0.1 mg/kg sub-cutaneous 2 weeks after surgery, measured 24 h later) is given as “obvious”. Further, the “radioactivity in muscle surrounding the implant” value in [7] (0.1 mg/kg sub-cutaneous, 24 h later) is “very low radioactive counts”. The “time the drug stays in the apatite material” value in data set [6] is recorded as “at least 6 months”. Further, in data set [8], the “uptake of 14C-ZA, micro (10 μm) vs nano (<200 nm) apatite particles” value is on record as “higher in micro-apatite particles compared to nano-apatite particles in 4 out of 5 specimens”. In addition, in data set [9] (micro-particles (10 μm)), the “increase of counts of 14C-ZA after 2 injections compared to one injection” value is 72%. In addition, the “higher counts of 14C-ZA after 2 injections compared to one injection” value in [9] (nano-apatite particles (<200 nm)) is 77%.

Take `NNC(=O)c1ccncc1` [Isoniazid]: the “antibiotic released from CaS/HA” value in [10] is “approximately 60%”.

For `CN[C@H](CC(C)C)C(=O)N[C@H]1C(=O)N[C@@H](CC(N)=O)C(=O)N[C@H]2C(=O)N[C@H]3C(=O)N[C@H](C(=O)N[C@H](C(=O)O)c4cc(O)cc(O)c4-c4cc3ccc4O)[C@H](O)c3ccc(c(Cl)c3)Oc3cc2cc(c3O[C@@H]2O[C@H](CO)[C@@H](O)[C@H](O)[C@H]2O[C@H]2C[C@](C)(N)[C@H](O)[C@H](C)O2)Oc2ccc(cc2Cl)[C@H]1O` [Vancomycin], the “inhibition of bacterial growth by CaS/HA with locally added antibiotic” value with S. aureus is “could not inhibit bacterial growth”.
